Laboratory results: the NIST ThermoML archive (doi:10.1016/j.jct.2016.03.032)

Test: mn = molality of the nth substance listed, in mol/kg
Conditions: 298.15 K, Liquid, Frequency=10 MHz, Single path-length method

CC(C)C[C@H](NC(=O)CN)C(=O)NCC(=O)O [glycyl-L-leucylglycine] + O
speed of sound [m/s]
Conditions	10000 kPa	20000 kPa	40000 kPa	60000 kPa	80000 kPa	100000 kPa	120000 kPa
m1 = 0.02682	1517.5	1534.2	1567.7	1601.1	1634.4	1667.5	1700.2
m1 = 0.03524	1518.6	1535.4	1568.9	1602.3	1635.6	1668.7	1701.4
m1 = 0.04618	1520.2	1537	1570.6	1604	1637.2	1670.2	1702.9
m1 = 0.05878	1522.1	1538.9	1572.4	1605.8	1639	1672	1704.7
m1 = 0.06956	1523.7	1540.5	1574	1607.3	1640.6	1673.5	1706.2
m1 = 0.07978	1525.2	1542	1575.5	1608.8	1642	1674.9	1707.5

NCC(=O)N[C@@H](CC(N)=O)C(=O)NCC(=O)O [glycyl-L-asparaginylglycine] + O
speed of sound [m/s]
Conditions	10000 kPa	20000 kPa	40000 kPa	60000 kPa	80000 kPa	100000 kPa	120000 kPa
m1 = 0.01982	1515.6	1532.4	1566	1599.5	1632.8	1666	1698.8
m1 = 0.02619	1516.3	1533.1	1566.7	1600.2	1633.5	1666.7	1699.6
m1 = 0.02894	1516.6	1533.4	1567.1	1600.5	1633.9	1667	1699.9
m1 = 0.03507	1517.3	1534.1	1567.8	1601.3	1634.6	1667.8	–
m1 = 0.03983	1517.8	1534.6	1568.3	1601.8	1635.1	1668.3	–

NCC(=O)N[C@@H](Cc1ccc(O)cc1)C(=O)NCC(=O)O [glycyl-L-tyrosylglycine] + O
speed of sound [m/s]
Conditions	10000 kPa	20000 kPa	40000 kPa	60000 kPa	80000 kPa	100000 kPa	120000 kPa
m1 = 0.02297	1516.3	1533.1	1566.7	1600.1	1633.5	1666.6	1699.5
m1 = 0.02401	1516.5	1533.2	1566.8	1600.3	1633.6	1666.8	1699.6
m1 = 0.02562	1516.7	1533.5	1567	1600.5	1633.9	1667	1699.8
m1 = 0.02676	1516.8	1533.6	1567.2	1600.7	1634	1667.1	1700
m1 = 0.02756	1516.9	1533.7	1567.3	1600.8	1634.1	1667.3	1700.1
m1 = 0.02905	1517	1533.9	1567.4	1601	1634.3	1667.5	1700.3

NCC(=O)NCC(=O)NCC(=O)O [glycylglycylglycine] + O
speed of sound [m/s]
Conditions	10000 kPa	20000 kPa	40000 kPa	60000 kPa	80000 kPa	100000 kPa	120000 kPa
m1 = 0.03621	1516.9	1533.8	1567.4	1600.8	1634.2	1667.4	1700.2
m1 = 0.0487	1518.2	1535	1568.6	1602.1	1635.5	1668.6	1701.4
m1 = 0.06185	1519.5	1536.3	1570	1603.4	1636.8	1669.9	1702.8
m1 = 0.07503	1520.8	1537.7	1571.3	1604.8	1638.2	1671.3	1704
m1 = 0.08705	1522.1	1538.9	1572.5	1606.1	1639.4	1672.5	1705.2
m1 = 0.1005	1523.3	1540.2	1573.8	1607.4	1640.7	1673.8	1706.6
